The target in the assay is T1, Limulus amoebocyte lysate factor G (Tachypleus tridentatus, UniProt Q27082).
T1 construct: Prepared from Japanese horseshoe crab, T. tridentatus; from tissue; host or cells: amoebocyte (hemocyte) lysate of the Japanese horseshoe crab T. tridentatus, factor G fraction
T1 sequence (Q27082 20-673): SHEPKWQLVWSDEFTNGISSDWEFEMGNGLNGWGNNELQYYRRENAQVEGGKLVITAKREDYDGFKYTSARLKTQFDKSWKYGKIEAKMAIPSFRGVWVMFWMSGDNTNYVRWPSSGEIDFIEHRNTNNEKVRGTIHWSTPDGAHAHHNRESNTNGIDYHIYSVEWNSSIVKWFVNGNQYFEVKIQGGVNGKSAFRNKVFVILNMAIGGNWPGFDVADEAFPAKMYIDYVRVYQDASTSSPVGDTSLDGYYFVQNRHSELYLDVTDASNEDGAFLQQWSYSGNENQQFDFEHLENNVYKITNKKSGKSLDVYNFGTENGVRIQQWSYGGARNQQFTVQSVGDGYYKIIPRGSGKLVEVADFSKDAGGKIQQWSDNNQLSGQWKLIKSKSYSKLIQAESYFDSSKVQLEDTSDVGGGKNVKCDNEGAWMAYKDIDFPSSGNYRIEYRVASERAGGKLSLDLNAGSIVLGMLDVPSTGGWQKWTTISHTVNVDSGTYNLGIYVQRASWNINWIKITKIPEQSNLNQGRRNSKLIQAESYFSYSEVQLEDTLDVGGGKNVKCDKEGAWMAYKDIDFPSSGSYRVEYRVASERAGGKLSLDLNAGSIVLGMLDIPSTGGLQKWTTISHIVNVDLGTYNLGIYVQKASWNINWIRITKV
T1 sequence (Q27083 32-309 partner): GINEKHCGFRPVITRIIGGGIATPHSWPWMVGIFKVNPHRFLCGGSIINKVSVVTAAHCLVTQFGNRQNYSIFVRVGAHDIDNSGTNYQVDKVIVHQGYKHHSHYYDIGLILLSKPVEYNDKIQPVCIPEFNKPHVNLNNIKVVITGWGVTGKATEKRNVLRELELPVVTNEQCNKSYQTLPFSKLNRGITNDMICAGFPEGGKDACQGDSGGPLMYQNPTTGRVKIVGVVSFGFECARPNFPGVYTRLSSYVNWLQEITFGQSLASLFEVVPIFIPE
The assay is described as follows: Activation titer determination method of factor G activation inhibiting substance (GI). The assay is classed as biochemical, T. tridentatus. The settings on record: 10 pg GA (No. 106); 37° C., 30 minutes; GI amount causing 100% inhibition of factor G activation = 100 units. The procedure:
The factor G activation inhibitory titer was measured according to the following activation titer determination method of factor G activation inhibiting substance and represented as units per mg. Activation titer determination method of factor G activation inhibiting substance (hereinafter, sometimes abbreviated as GI)
A 200 μl portion of a reaction mixture has the following composition. […]
After incubating the above-described reaction mixture at 37° C. for 30 minutes, 0.5 ml each of 0.04% sodium nitrite (0.48M HCl solution), 0.3% ammonium sulfamate and 0.07% N-1-naphthylethylenediamine dihydrochloride was added to the reaction mixture to effect coloration by diazo-coupling. The amount of released pNA was determined by measuring an absorbance at 545 nm (A545). GI activity was calculated according to the following equation; [formula]
Under these conditions, the GI amount which causes 100% inhibition of an activation of factor G by GA is defined as 100 units.
(Note 1) Water-insoluble samples are dissolved in 0.3M NaOH and neutralized with an equal volume of 0.3M HCl.
(Note 2) GPC fractionation-purified product of the curdian sonicated product prepared in the above-described Preparation Example 5 (Table-2, No. 106, molecular weight 216,000).
(Note 3) Prepared from Japanese horseshoe crab, T. tridentatus according to the article [T. Obayasi et al., Clin. Chim. Acta., 149, 55-65 (1985)].

For the molecule `OC[C@H]1O[C@@H](O[C@H]2[C@H](O)[C@@H](CO)OC(O)[C@@H]2O)[C@H](O)[C@@H](O)[C@@H]1O` (some centres unmarked) [compound 5, Laminaribiose], the “Factor G Activation Inhibitory Titer” value is recorded as 214 unit/mg.
Turning to `OC[C@H]1O[C@@H](O[C@@H]2[C@@H](O)[C@H](O[C@H]3[C@H](O)[C@@H](CO)OC(O)[C@@H]3O)O[C@H](CO)[C@H]2O)[C@H](O)[C@@H](O)[C@@H]1O` (some centres unmarked) [compound 6, Laminaritriose], the “Factor G Activation Inhibitory Titer” value is on record as 4,670 unit/mg.
The result for `OC[C@H]1O[C@@H](O[C@@H]2[C@@H](O)[C@H](O[C@@H]3[C@@H](O)[C@H](O[C@H]4[C@H](O)[C@@H](CO)OC(O)[C@@H]4O)O[C@H](CO)[C@H]3O)O[C@H](CO)[C@H]2O)[C@H](O)[C@@H](O)[C@@H]1O` (some centres unmarked) [compound 7, Laminaritetraose] reads 20,000 unit/mg; that for `OC[C@H]1O[C@@H](O[C@@H]2[C@@H](O)[C@H](O[C@@H]3[C@@H](O)[C@H](O[C@@H]4[C@@H](O)[C@H](O[C@H]5[C@H](O)[C@@H](CO)OC(O)[C@@H]5O)O[C@H](CO)[C@H]4O)O[C@H](CO)[C@H]3O)O[C@H](CO)[C@H]2O)[C@H](O)[C@@H](O)[C@@H]1O` (some centres unmarked) [compound 8, Laminaripentaose], 39,800 unit/mg.
As for `OC[C@H]1O[C@@H](O[C@@H]2[C@@H](O)[C@H](O[C@@H]3[C@@H](O)[C@H](O[C@@H]4[C@@H](O)[C@H](O[C@@H]5[C@@H](O)[C@H](O[C@H]6[C@H](O)[C@@H](CO)OC(O)[C@@H]6O)O[C@H](CO)[C@H]5O)O[C@H](CO)[C@H]4O)O[C@H](CO)[C@H]3O)O[C@H](CO)[C@H]2O)[C@H](O)[C@@H](O)[C@@H]1O` (some centres unmarked) [compound 9, Laminarihexaose], the “Factor G Activation Inhibitory Titer” value was 55,000 unit/mg.
On to `OC[C@H]1O[C@@H](O[C@@H]2[C@@H](O)[C@H](O[C@@H]3[C@@H](O)[C@H](O[C@@H]4[C@@H](O)[C@H](O[C@@H]5[C@@H](O)[C@H](O[C@@H]6[C@@H](O)[C@H](O[C@H]7[C@H](O)[C@@H](CO)OC(O)[C@@H]7O)O[C@H](CO)[C@H]6O)O[C@H](CO)[C@H]5O)O[C@H](CO)[C@H]4O)O[C@H](CO)[C@H]3O)O[C@H](CO)[C@H]2O)[C@H](O)[C@@H](O)[C@@H]1O` (some centres unmarked) [compound 10, Laminariheptaose], for which the “Factor G Activation Inhibitory Titer” value is 103,000 unit/mg.
In the case of `OC[C@H]1OC(O)[C@H](O)[C@@H](O)[C@@H]1O` (some centres unmarked) [compound 108, Glucose], the “Factor G Activation Inhibitory Titer” value is on record as less than 100 unit/mg.
Consider “Partially carboxymethylated (1→3)-β-D-glucan (DS = 0.03) GPC fraction 1 [compound 39]”, for which the “Factor G Activation Inhibitory Titer” value is 117,000 unit/mg.
Consider “Partially carboxymethylated (1→3)-β-D-glucan (DS = 0.03) GPC fraction 2 [compound 40]”, for which the “Factor G Activation Inhibitory Titer” value is 91,200 unit/mg.
As for “Partially carboxymethylated (1→3)-β-D-glucan (DS = 0.03) GPC fraction 3 [Sample No. 41]”, the “Factor G Activation Inhibitory Titer” value is reported as 80,000 unit/mg.
In the case of “Partially carboxymethylated (1→3)-β-D-glucan (DS = 1.20) [compound 107]”, the “Factor G Activation Inhibitory Titer” value is less than 100 unit/mg.
For the molecule “Partially carboxymethylated laminaran [compound 42]”, the “Factor G Activation Inhibitory Titer” value is on record as 3,630,000 unit/mg.
Regarding “Partially methylated (1→3)-β-D-glucan [compound 43]”, the “Factor G Activation Inhibitory Titer” value was 93,300 unit/mg.
Turning to “Partially sulfated laminaran [compound 44]”, the “Factor G Activation Inhibitory Titer” value is reported as 117,000 unit/mg.

The record behind these values is patent US5401647A, “Method of preparing Limulus amoebocyte lysate” (Seikagaku Kogyo Kabushiki Kaisha (Seikagaku Corporation), priority 1990, dated 1995).
